Source: a melting point compilation (Tetko et al.; mined from patent text by program, amines drawn as free bases though some values may be those of a salt)
Residues, ends and D or L forms follow the SMILES beside them. *: point of attachment. Cbz = O=C(OCc1ccccc1)*; Boc = CC(C)(C)OC(=O)*

melting point | Compound
73 to 74 °C | CCN(CC)C(=O)c1ccoc1-c1ccc(N(C)C)cc1
233 to 234 °C | CC(=O)c1c[nH]c2c3c(ccc12)OCC3
52 °C | CCOC(=O)c1nnnn1Cc1ccc(OC)cc1
96 to 98 °C | O=C=Nc1ccc(OCC(=O)OCCOC(=O)COc2ccc(N=C=O)cc2)cc1
51 to 52 °C | O=C(CSc1ccccc1)c1ccccc1
81 to 85 °C | CC(=O)c1ccc(C=C(Cl)Cl)s1
155 to 156 °C | O=C(NCCO)c1cccc(-c2cncc3cc(Cc4cccc(C(F)(F)F)c4)oc23)c1
183 °C | O=S1(=O)c2cccc3cccc(c23)N1CCCN1CCC(CC2CCc3ccccc32)CC1 (stereo not drawn)
182 to 184 °C | CNC(=O)c1cc(-c2ccc(OC)c(Cl)c2)nn(CC(C)C)c1=O
102 to 150 °C | OCC1OC(n2c(Cl)nc3cc(Cl)ccc32)C(O)C1O (stereo not drawn)
235 to 237 °C | O=[N+]([O-])c1cnn2c(-c3ccco3)ccnc12
150 to 152 °C | COCC(=O)N(c1c(C)cccc1C)C(CCO)C(=O)O (stereo not drawn)
64 to 66 °C | Oc1ccc(-c2nnc(CSCCOc3ccccc3)n2Cc2ccccc2)cc1
69 to 71 °C | CCCCc1sc(-c2ccccc2)nc1O
109 to 110 °C | O=C(Cl)c1c(-c2ccccc2)nn2c1-c1ccccc1CC2
131 to 132 °C | C=CCc1c(SC(C)=O)[nH]c(-c2ccc(Cl)cc2)c1-c1ccc(Cl)cc1
144 to 146 °C | Cc1noc(C)c1CON1C(=O)c2ccccc2C1=O
105 to 106 °C | O=C(C(=O)c1ccn(CC(F)(F)F)c1)c1cccc(Br)c1
241 to 243 °C | Cc1ccnc2c1nc(-c1cccnc1N)n2-c1ccc(CC(=O)Nc2cccc(F)c2)cc1
117 °C | ON=C(Cn1cncn1)c1ccc(Cl)cc1Cl
164 to 166 °C | COCC1CN(c2ccc(C3CCN(C(=O)c4ccc(C(F)(F)F)cc4)CC3)cc2)C(=O)O1 (racemic)
76 °C | CN(C)c1ccc(S(=O)(=O)n2c(CCCC(=O)O)cc3nc(Cl)ccc32)cc1
75.5 to 76 °C | CC(C)c1cc2c(cc1CCSCC(=O)O)OCO2
194 to 196 °C | CC(C)Oc1ccc2c(n1)C(C(=O)c1cccs1)C(=O)N2C(N)=O (stereo not drawn)
149 to 151 °C | Cc1c(SCCCN2CCN(Cc3ccncc3)CC2)ccnc1CNc1ncncc1Cl

melting point | Compound
90 to 93 °C | O=C(c1ccccc1)c1ccccc1N1C=NC(CCl)(C(=O)O)N1 (stereo not drawn)
238 to 239 °C | O=C(O)C1=Cc2cc(Cl)c(Oc3cccnc3)cc2OC1C(F)(F)F (stereo not drawn)
150 to 152 °C | N#CC=C1CCN(c2ccc(N3C[C@H](CNC(=O)CC#N)OC3=O)cc2F)CC1
188 to 190 °C | COc1ccc(CN(CCN(C)C)c2ccc(C(=O)O)cn2)cc1
155 to 156 °C | OCCC(O)OCn1cc(I)c2c(Cl)ncnc21 (stereo not drawn)
122 °C | CN(C)C=NS(=O)(=O)c1cccc(Br)c1
120 to 122 °C | C[C@H](NC(=O)c1ccccc1)C(=O)CCl
151 °C | COC(=O)c1cc(C(=O)c2ncc3ccccn23)ccc1[N+](=O)[O-]
269 to 270 °C | O=Cc1cccn1-c1ccc(C(=O)O)cc1
155 to 157 °C | COc1cc(Br)c(O)c(/C=C/C(=O)/C=C/c2cc(OC)cc(Br)c2O)c1
80 to 81 °C | CC(OCc1ccc(-c2ccccc2)cc1)(C(=O)O)C(F)(F)F (stereo not drawn)
40 to 41 °C | Cc1cc2c(-c3cccc(C(F)(F)F)c3)nc(COCC(F)(F)F)nc2s1
253 to 255 °C | CCCCNc1nc(-c2ccc(=O)n(C)n2)c(-c2ccccc2)nc1N
87 to 88 °C | COc1cc(C)c(-c2c(C)cncc2C)c(C)c1
170 to 172 °C | O=C1N(N2CCOCC2)c2ccccc2C1(Cc1ccnc(F)c1)c1ccccc1 (stereo not drawn)
107 to 109 °C | CC(=O)N1C(=O)NC(=O)CC1C (stereo not drawn)
113 to 115 °C | OCCN1c2ccccc2Oc2ccccc21
30 to 31 °C | FC(F)(F)c1cc(C#CCBr)cc(C(F)(F)F)c1
264 to 265 °C | COc1ccc(C(=O)NCc2ccccc2)c2c1oc1ccc(NC(C)=O)cc12
146 to 148 °C | CCC1Cc2cc(OCCCC(=O)O)c(Cl)c(Cl)c2C1=O (stereo not drawn)
80 to 81 °C | CON=C(C(=O)O)C1(CCl)OCCO1
77 to 79 °C | Cc1c[nH]c2c(C=O)cccc12
152 to 153 °C | Cc1ccccc1CCC(=O)NCc1ncc(C(F)(F)F)cc1Cl
128 to 130 °C | NS(=O)(=O)c1ccccc1CSc1ncccn1
122 to 127 °C | Cn1c(CC#N)ccc1C(=O)c1cccc(Cl)c1

melting point | Compound
159 to 160 °C | Cc1nnc(-c2ccc3occ(-c4ccc5c(c4)C(C)(C)CS5)c3c2)o1
243 to 245 °C | O=C(O)Cc1cccc2c1N=C(c1ccccc1F)CC2=O
74 to 75 °C | FC(F)(F)c1n[nH]c(C(F)(F)F)n1
98 to 100 °C | N#Cc1cc(F)cc(C#N)c1
115 to 118 °C | Cc1ccc(OC(=O)c2cccc(C(=O)Oc3ccc(C)cc3-n3nc4ccccc4n3)c2)c(-n2nc3ccccc3n2)c1
221 to 223 °C | N#Cc1ccc(-c2cc(N(Cc3ccc(O)cc3)n3cnnc3)ccc2C#N)cc1
223 to 226 °C | CCCOc1ccccc1-c1nc2cc3ncn(CC4CCCCC4)c3cc2c(=O)[nH]1
88 to 89 °C | COc1cc(OC)nc(C(C#N)c2ccccc2[N+](=O)[O-])n1 (stereo not drawn)
286 to 288 °C | Cc1cc(C)n2nc(S(=O)(=O)Nc3c(Cl)ccc(C)c3Cl)nc2n1
252 to 254 °C | O=C(NCCc1nc(-c2ccncn2)cc(=O)[nH]1)OCc1ccccc1
104 to 106 °C | CC(=O)NC1CCNC(c2cccc(Oc3ccccc3)n2)C1 (stereo not drawn)
131 to 132 °C | CCOc1cc(OCCCc2cn(-c3ccc(C(F)(F)F)cc3)nc2OCC)ccc1CCC(=O)O
127 to 128 °C | Cc1cn(-c2cc(C#N)cc(C(F)(F)F)c2)cn1
191 to 193 °C | CC(=O)Sc1c(C)nn2c3ccccc3n(C(C)=O)c12
228 to 230 °C | Nc1cc(Cl)c(Br)cc1C(=O)O
118 to 120 °C | Cc1c(OCc2ccc(F)cc2F)cc(C)n(C2CCCCC2)c1=O
218 °C | NS(=O)(=O)c1ccc(N2CCN(CC3OCCc4ccccc43)CC2)cc1 (racemic)
230 to 235 °C | O=C(Cn1cnc2ccccc21)Nc1ccc(-n2nc(C3CC3)cc2C2CC2)cc1
125 to 128 °C | CC(C)CC(NC(=O)OCc1ccccc1)C(=O)NC(CCCCNC(=O)OC(C)(C)C)C(=O)O (stereo not drawn) (Cbz-Leu-Lys(Boc)-OH; configuration not given here)
289 to 290 °C | CCOc1ccccc1-c1ncc(-c2nnn[nH]2)c(=O)[nH]1
131 °C | COc1ccccc1-c1cccc(C(c2ccccc2)c2ccccc2)c1O
229 °C | Cc1cc(C23CC4CC(CC(C4)C2)C3)ccc1NC(=O)c1cc([N+](=O)[O-])ccc1Br
102 to 105 °C | CCC1CC2=C(CCC(=O)C2)C2CCC3(C)C(=CCC3O)C12 (stereo not drawn)
180 to 182 °C | COc1ccc(Nc2cc(NC(C)C)ncn2)cc1
80.6 °C | CCNc1cccc2c1OC1(CC1)C2=O

melting point | Compound
136 to 140 °C | CNC1=NN(C(=O)c2ccccc2F)C(C)(C)S1
181 to 183 °C | O=[N+]([O-])c1cn2c(n1)OC[C@@H](OCc1cnc(Cl)cn1)C2
182 to 191 °C | Cc1cnc2c(NC(=O)c3ccccc3C(F)(F)F)cccc2c1N1CCN(C)C1=O
273 to 280 °C | CCCn1c(=O)n2c(-c3ccccc3)nnc2c2[nH]cnc21
154 to 155 °C | CC(CCc1cc2cccnc2n(-c2cccc([N+](=O)[O-])c2)c1=O)c1ccncc1 (stereo not drawn)
125 to 126 °C | COc1ccc(Cl)cc1C(=O)NC(C)Cc1ccc(CCC(=O)O)cc1 (stereo not drawn)
178 °C | OC(c1cc2ccccc2s1)C1CCN(CCc2ccccc2)CC1 (stereo not drawn)
81 to 82 °C | Cc1ccc(-c2ncncc2Br)cc1
113 to 114 °C | COC(=O)Cc1cn(-c2ccccc2)nc1OCc1ccc(OCc2nc(-c3ccccc3)oc2C)cc1
127 to 128 °C | O=C(O)C=CC(=O)Oc1ccccc1
122 to 124 °C | CCCCc1nc2ccccn2c(=O)c1-c1ccc(Cl)c(C)c1
182 to 184 °C | CCCc1nc(C)n2cnnc2c1Cc1ccc(-c2ccccc2-c2nnn[nH]2)cc1
174 to 176 °C | Cc1ccc(C=CC(=O)C=Cc2ccc(C)cc2)cc1
296 to 297 °C | CC(C)(C)c1ccc(C(=O)Nc2cn3nc(NC4CCCCC4)ccc3n2)cc1
209 to 210 °C | O=C(Nc1cc(OCCCO/N=C/c2ccc(C(F)(F)F)cc2)ccc1C(=O)O)c1ccc(C(F)(F)F)cc1
186 to 187 °C | Cc1cn(N=Cc2cccnc2)c(=O)n1C
168 to 170 °C | CCOc1nc2cccc(C(=O)OC)c2n1Cc1ccc(-c2ccccc2C#N)cc1
123 to 124 °C | CCS(=O)(=O)N(C(C)=O)c1cc(-c2ncnc(C(F)F)c2Cl)c(F)cc1C#N
259 to 263 °C | N#Cc1cnc2cc(Cl)c([N+](=O)[O-])cc2c1Nc1ccc(F)c(Cl)c1
197 °C | N#Cc1c(C(F)(F)F)cc(-c2ccc(C(F)(F)F)cc2)[nH]c1=O
116 to 117 °C | COc1cc(C)c(C(=O)c2c(C(F)(F)F)ccnc2Cl)cc1OCc1ccccc1
145 to 148 °C | CCN(CC)CCn1cc(C(=O)NCc2ccc(Cl)cc2)c(=O)c2cc(C#CCO)ccc21

Compound | melting point
CCCc1c(C(=O)C(C)C)c2ccc(C(N)=O)cc2n1Cc1ccccc1NC(C)=O | 235 to 236 °C
CC(=O)c1cccnc1N(C)C1CCN(Cc2ccccc2)CC1 | 93 to 94 °C
COC(=O)C1C=C2c3cccc4[nH]c(C)c(c34)CC2N(C)C1 (stereo not drawn) | 154 °C
O=C1C2CCCC1CN(Cc1ccccc1)C2 | 48 to 50.5 °C
CN1CCC(c2n[nH]c3ccccc23)CC1 | 168 to 170 °C
CCCCCCCCCN1C(=O)N(c2ccc([N+](=O)[O-])c(C(F)(F)F)c2)C(=O)C1(C)C | 63 °C
